Measured values reported in PubChem BioAssay AID1919010 (Molecular Pharmacology Branch, DTP, NCI, 2023).
pIC50: −log10 of the molar value.

System: Hs578T complex spheroid growth, percent test/control
Assay: Anticancer human tumor Hs578T cell line growth inhibition [AhR];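 note: luminescent viability signal as a proxy for spheroid growth; spheroids exposed to agents for one week after three days of growth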
Details: for pIC50: curve of first compound; for viability, T/C: stronger effect = lower value
Outline: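 Spheroids combined tumor cells with HUVEC endothelial cells and human MSCs as stroma. AhR antagonists were paired with standard or investigational drugs, each dosed in half-log steps down from near clinical Cmax, or from 10 microM where Cmax was unknown.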

[1] = second compound 0.1 µM, first compound 0.0316 µM
[2] = second compound 0.1 µM, first compound 0.1 µM
[3] = second compound 0.1 µM, first compound 0.316 µM
[4] = second compound 0.1 µM, first compound 1 µM
[5] = second compound 0.1 µM, first compound 3.16 µM
[6] = second compound 0.1 µM, first compound 10 µM
[7] = second compound 0.316 µM, first compound 0.0316 µM
[8] = second compound 0.316 µM, first compound 0.1 µM
[9] = second compound 0.316 µM, first compound 0.316 µM
[10] = second compound 0.316 µM, first compound 1 µM
[11] = second compound 0.316 µM, first compound 3.16 µM
[12] = second compound 0.316 µM, first compound 10 µM
[13] = second compound 1 µM, first compound 0.0316 µM
[14] = second compound 1 µM, first compound 0.1 µM
[15] = second compound 1 µM, first compound 0.316 µM
[16] = second compound 1 µM, first compound 1 µM
[17] = second compound 1 µM, first compound 3.16 µM
[18] = second compound 1 µM, first compound 10 µM
[19] = second compound 3.16 µM, first compound 0.0316 µM
[20] = second compound 3.16 µM, first compound 0.1 µM
[21] = second compound 3.16 µM, first compound 0.316 µM
[22] = second compound 3.16 µM, first compound 1 µM
[23] = second compound 3.16 µM, first compound 3.16 µM
[24] = second compound 3.16 µM, first compound 10 µM
[25] = second compound 10 µM, first compound 0.0316 µM
[26] = second compound 10 µM, first compound 0.1 µM
[27] = second compound 10 µM, first compound 0.316 µM
[28] = second compound 10 µM, first compound 1 µM
[29] = second compound 10 µM, first compound 3.16 µM
[30] = second compound 10 µM, first compound 10 µM

pIC50 (second compound 0.1 µM) | pIC50 (second compound 0.316 µM) | pIC50 (second compound 1 µM) | pIC50 (second compound 3.16 µM) | pIC50 (second compound 10 µM) | Compound | viability, T/C [1] | viability, T/C [2] | viability, T/C [3] | viability, T/C [4] | viability, T/C [5] | viability, T/C [6] | viability, T/C [7] | viability, T/C [8] | viability, T/C [9] | viability, T/C [13] | viability, T/C [14] | viability, T/C [19] | viability, T/C [20] | viability, T/C [25] | viability, T/C [26] | also measured
< 5.00 | < 5.00 | < 5.00 | < 5.00 | < 5.00 | CC(C)c1c(-c2ccccc2)nc2c(C#N)c[nH]n2c1=O + CC(CO)NC(=O)c1cc(-c2ccc(Cl)cc2)nn(-c2cnn(C)c2)c1=O | 109% | 116% | 121% | 113% | 119% | 111% | 113% | 129% | 123% | 109% | 124% | 115% | 124% | 110% | 113% | viability, T/C [10]: 111%; viability, T/C [11]: 113%; viability, T/C [12]: 115%; viability, T/C [15]: 119%; viability, T/C [16]: 113%; viability, T/C [17]: 113%; viability, T/C [18]: 116%; viability, T/C [21]: 131%; viability, T/C [22]: 113%; viability, T/C [23]: 120%; viability, T/C [24]: 120%; viability, T/C [27]: 107%; viability, T/C [28]: 110%; viability, T/C [29]: 113%; viability, T/C [30]: 110%
5.26 | 5.31 | 5.22 | 5.38 | 5.31 | COc1ccc([C@@H](O)c2cc(-c3ncnc4cc(N5CCOCC5)ccc34)c(F)cc2Cl)nn1 + CC(CO)NC(=O)c1cc(-c2ccc(Cl)cc2)nn(-c2cnn(C)c2)c1=O | 109% | 111% | 105% | 89.2% | 64.2% | 35.7% | 113% | 115% | 104% | 117% | 112% | 111% | 106% | 95.6% | 97.5% | viability, T/C [10]: 87.2%; viability, T/C [11]: 57.8%; viability, T/C [12]: 36.7%; viability, T/C [15]: 102%; viability, T/C [16]: 85.8%; viability, T/C [17]: 65.1%; viability, T/C [18]: 38.3%; viability, T/C [21]: 102%; viability, T/C [22]: 84%; viability, T/C [23]: 52.9%; viability, T/C [24]: 38.7%; viability, T/C [27]: 99.9%; viability, T/C [28]: 82.5%; viability, T/C [29]: 56.9%; viability, T/C [30]: 39.5%
< 7.00 | < 7.00 | < 7.00 | < 7.00 | 7.12 | CC[C@@]1(O)C(=O)OCc2c1cc1n(c2=O)Cc2cc3c(CN(C)C)c(O)ccc3nc2-1 + Cc1ccccc1N=Nc1ccc(NC(=O)c2ccnn2C)c(C)c1 | 69.1% | 69.2% |  |  |  |  | 78.3% | 68.3% |  | 71.7% | 61.7% | 63.4% | 55.9% | 50.4% | 50.1% | viability, T/C (second compound 0.1 µM, first compound 0.000316 µM): 101%; viability, T/C (second compound 0.1 µM, first compound 0.001 µM): 106%; viability, T/C (second compound 0.1 µM, first compound 0.00316 µM): 89.4%; viability, T/C (second compound 0.1 µM, first compound 0.01 µM): 73.3%; viability, T/C (second compound 0.316 µM, first compound 0.000316 µM): 108%; viability, T/C (second compound 0.316 µM, first compound 0.001 µM): 104%; viability, T/C (second compound 0.316 µM, first compound 0.00316 µM): 89.9%; viability, T/C (second compound 0.316 µM, first compound 0.01 µM): 80.7%; viability, T/C (second compound 1 µM, first compound 0.000316 µM): 99.2%; viability, T/C (second compound 1 µM, first compound 0.001 µM): 110%; viability, T/C (second compound 1 µM, first compound 0.00316 µM): 96%; viability, T/C (second compound 1 µM, first compound 0.01 µM): 79.8%; viability, T/C (second compound 3.16 µM, first compound 0.000316 µM): 94.5%; viability, T/C (second compound 3.16 µM, first compound 0.001 µM): 90.8%; viability, T/C (second compound 3.16 µM, first compound 0.00316 µM): 83.1%; viability, T/C (second compound 3.16 µM, first compound 0.01 µM): 66.8%; viability, T/C (second compound 10 µM, first compound 0.000316 µM): 65.3%; viability, T/C (second compound 10 µM, first compound 0.001 µM): 61.3%; viability, T/C (second compound 10 µM, first compound 0.00316 µM): 65.6%; viability, T/C (second compound 10 µM, first compound 0.01 µM): 59.6%
